Measured values: patent US20220096516A1, “OLIGONUCLEOTIDE MOLECULE AND APPLICATION THEREOF IN TUMOR THERAPY” (Ractigen Therapeutics, priority 2019, published 2022)
d = 2'-deoxy (DNA); r = 2'-OH (RNA)

Columns and labels:
Assay type in all cases: cell-based, human
Li-7 cells = experiment: Cell viability by CCK-8 method, Li-7; conditions: Li-7, 10 nM, 72 h, FIG. 6B
Procedure: (§1) 8 LHPP promoter-targeting saRNAs were individually transfected into liver cancer cells at 10 nM for 72 h. In FIG. 6A, the expression level of LHPP mRNA was analyzed by RT-qPCR. In FIG. 6B, cell viability in the saRNA treatment group was evaluated by the CCK-8 method and recorded as a percentage relative to the viability of cells in a control (Mock) treatment group.
The cell viability was detected by the following CCK-8 method: the cCells were plated into a 96-well plate at 3-5×10^3 cells/well, cultured overnight, and transfected with the oligonucleotide duplexes. After 72 hour of transfection, 10 uL of CCK-8 solution (Dojindo Molecular Technologies) was added into each well. After 1 hour of incubation at 37° C., a microplate reader was used to measure absorbances at 450 nm. […]

LHPP gene [1] = experiment: LHPP mRNA expression by RT-qPCR in cancer cell lines; conditions: 72 h
Procedure: as §1
as §1, with “into” for “into liver”, “7A,” for “6A,”, “7B,” for “6B,”
(§2) In order to further evaluate the effect of LHPP saRNAs in inducing the mRNA expression of the LHPP gene and inhibiting the proliferation of cancer cells, eight screened saRNAs (RAG7-132, RAG7-133, RAG7-139, RAG7-177, RAG7-178, RAG7-694, RAG7-707 and RAG7-892) each were transfected into the liver cancer cell lines Huh7 (Medical Cell Resource Center, Tohoku University, Japan), HepG2 (ATCC), Hep3B (ATCC), Li-7 (Medical Cell Resource Center, Tohoku University, Japan) and SK-HEP-1 (ATCC), a lung cancer cell line A549 (ATCC), a bladder cancer cell line T24 (ATCC), a prostatic cancer cell line PC3 (ATCC), and a glioma cell line U87MG (ATCC). The mRNA expression and cell viability of the transfected cells were measured.

[2] = test system: prostatic cancer cell line PC3; experiment: Cell viability by CCK-8 method, PC3; conditions: PC3, 10 nM, 72 h, FIG. 7B
Procedure: as §1, with “into” for “into liver”, “7A,” for “6A,”, “7B,” for “6B,”
(§3) The cell viability was detected by the following CCK-8 method: the cCells were plated into a 96-well plate at 3-5×10^3 cells/well, cultured overnight, and transfected with the oligonucleotide duplexes. After 72 hour of transfection, 10 uL of CCK-8 solution (Dojindo Molecular Technologies) was added into each well. After 1 hour of incubation at 37° C., a microplate reader was used to measure absorbances at 450 nm.
as §2

[3] = test system: bladder cancer cell line T24; experiment: Cell viability by CCK-8 method, T24; conditions: T24, 10 nM, 72 h, FIG. 7B
Procedure: as §1, with “into” for “into liver”, “7A,” for “6A,”, “7B,” for “6B,”
as §3, §2

LHPP gene [4] = experiment: High-throughput screening of saRNAs targeting LHPP promoter: LHPP mRNA by one-step RT-qPCR in Huh7 cells; conditions: 10 nM saRNA, 72 hours, relative to control (Mock)
In short: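 LHPP transcript level relative to mock, normalised to the geometric mean of the HPRT1 and TBP reference genes, measured by one-step RT-qPCR on crude lysates. Huh7 cells had been RNAiMax-transfected with each saRNA at 10 nM for 72 h.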

glioma cell line U87MG = experiment: Cell viability by CCK-8 method, U87MG; conditions: 10 nM, 72 h, FIG. 7B
Procedure: as §1, with “into” for “into liver”, “7A,” for “6A,”, “7B,” for “6B,”
as §3, §2

RAG7-133: saRNA duplex; sense GCUCUUUGUCCGCUGAUCUTT (SEQ ID NO: 1), antisense AGAUCAGCGGACAAAGAGCTT (SEQ ID NO: 165) (sugars from the 5' end r19 d2, backbone not given here)
cell proliferation (cell viability, CCK-8) (Li-7 cells): inhibited cell proliferation | expression of LHPP gene (mRNA) (LHPP gene [1]; Hep3B, 10 nM, FIG. 6A): induced the expression of LHPP gene to different degrees | expression of LHPP gene (mRNA) (LHPP gene [1]; HepG2, 10 nM, FIG. 6A): induced the expression of LHPP gene to different degrees | expression of LHPP gene (mRNA) (LHPP gene [1]; Huh7, 10 nM, FIG. 6A): induced the expression of LHPP gene to different degrees | expression of LHPP gene (mRNA) (LHPP gene [1]; Li-7, 10 nM, FIG. 6A): induced the expression of LHPP gene to different degrees | expression of LHPP gene (mRNA) (LHPP gene [1]; PC3, 10 nM, FIG. 7A): induced the expression of LHPP gene to different degrees | expression of LHPP gene (mRNA) (LHPP gene [1]; SK-HEP-1, 10 nM, FIG. 6A): induced the expression of LHPP gene to different degrees | expression of LHPP gene (mRNA) (LHPP gene [1]; T24, 10 nM, FIG. 7A): induced the expression of LHPP gene to different degrees | expression of LHPP gene (mRNA) (LHPP gene [1]; U87MG, 10 nM, FIG. 7A): induced the expression of LHPP gene to different degrees | cell proliferation (cell viability, CCK-8) [2]: inhibited cell proliferation | cell proliferation (cell viability, CCK-8) [3]: inhibited cell proliferation | Fold of changes in relative LHPP mRNA expression level (LHPP gene [4]): 2.54 fold | Fold of changes in relative LHPP mRNA expression level (log2) (LHPP gene [4]): 1.35 log2 | cell proliferation (cell viability, CCK-8) (glioma cell line U87MG): inhibited cell proliferation
